The values that follow come from PubChem BioAssay (NCI).

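These data come from cells grown in 96-well plates and exposed to compound for 48 hours at five concentrations. GI50: concentration for 50% inhibition of growth. TGI: concentration producing complete growth inhibition.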

Among the test systems are 786-0 renal; LOX IMVI melanoma; HT29 colon; KM12 colon; OVCAR-3 ovarian; SK-MEL-5 melanoma; EKVX NSCLC; UO-31 renal; HCT-116 colon; HS 578T breast.
Holding throughout (assay): NCI anticancer screen, dose series, 48 h

As for `O=C(O)c1c2c(cc3c(=O)cc(-c4ccccc4)oc13)CCCC2`, the TGI in the assay on 786-0 renal, in the assay on LOX IMVI melanoma, in the assay with HT29 colon, in the assay with KM12 colon, in the assay with OVCAR-3 ovarian and in the assay with SK-MEL-5 melanoma was above 100 µM in each case. Also, the TGI in the assay on EKVX NSCLC, in the assay with UO-31 renal and with HCT-116 colon was above 100 µM in each case.

As to `O=[N+]([O-])c1ccc2c(c1)C(c1ccccc1Cl)=Nc1c(n[nH]c1-c1cccnc1)N2`, the GI50 in the assay on 786-0 renal was above 25 µM; in the assay on LOX IMVI melanoma, above 25 µM; with HT29 colon, above 25 µM; in the assay on KM12 colon, 9.41 µM; with OVCAR-3 ovarian, above 25 µM; in the assay on SK-MEL-5 melanoma, above 25 µM. Besides, the GI50 in the assay with HS 578T breast was above 19.9 µM; in the assay on UO-31 renal, above 25 µM; with HCT-116 colon it was above 25 µM. Moreover, the TGI in the assay on 786-0 renal, in the assay with LOX IMVI melanoma, in the assay with HT29 colon, in the assay on KM12 colon, in the assay on OVCAR-3 ovarian and in the assay on SK-MEL-5 melanoma was above 25 µM throughout. The TGI with HS 578T breast, in the assay on UO-31 renal and in the assay with HCT-116 colon was above 25 µM throughout.

`Cn1c(=O)c(Oc2ccc(F)cc2F)cc2cnc(NC3CCOCC3)nc21`: the GI50 in the assay on 786-0 renal, in the assay on LOX IMVI melanoma, in the assay with HT29 colon, in the assay with KM12 colon, in the assay with OVCAR-3 ovarian and in the assay with SK-MEL-5 melanoma was above 25 µM each time. For the same compound, the GI50 with HS 578T breast was above 14.3 µM; in the assay with UO-31 renal, 8.06 µM; in the assay with HCT-116 colon it was above 25 µM. For the same compound, the TGI with 786-0 renal, in the assay with LOX IMVI melanoma, in the assay with HT29 colon, in the assay with KM12 colon, in the assay with OVCAR-3 ovarian and in the assay on SK-MEL-5 melanoma was above 25 µM each time. The TGI in the assay with HS 578T breast is above 25 µM; in the assay with UO-31 renal it was above 19.3 µM; in the assay with HCT-116 colon it was above 25 µM.

On to `CC(=O)N[C@@H](Cc1ccc(OP(=O)(O)O)cc1)C(=O)N[C@H]1CCC(=O)N2CCC[C@@H](C(=O)NCc3ccccc3)N2C1=O`, for which the GI50 with 786-0 renal, with LOX IMVI melanoma, in the assay on HT29 colon, in the assay on KM12 colon, in the assay with OVCAR-3 ovarian and in the assay on SK-MEL-5 melanoma was above 25 µM in each case. Also, the GI50 with HS 578T breast, in the assay on UO-31 renal and with HCT-116 colon was above 25 µM in each case. In addition, the TGI in the assay with 786-0 renal, in the assay on LOX IMVI melanoma, in the assay on HT29 colon, with KM12 colon, in the assay with OVCAR-3 ovarian and in the assay with SK-MEL-5 melanoma was above 25 µM each time. For the same compound, the TGI in the assay with HS 578T breast, with UO-31 renal and in the assay with HCT-116 colon was above 25 µM throughout.

Turning to `COc1cc(C2CC(=O)Nc3c2c(C)nn3-c2nc3ccccc3[nH]2)cc(OC)c1O` (stereo not drawn), the GI50 with 786-0 renal was 3.01 µM; in the assay on LOX IMVI melanoma it was 3.08 µM; with HT29 colon it was 3.66 µM; in the assay on KM12 colon it was 3.26 µM; with OVCAR-3 ovarian, 2.95 µM; in the assay with SK-MEL-5 melanoma, 1.83 µM. Besides, the GI50 was 2.05 µM with HS 578T breast, 2.49 µM in the assay with UO-31 renal and 3.45 µM in the assay with HCT-116 colon. Further, the TGI with 786-0 renal turned out to be 9.39 µM; in the assay on LOX IMVI melanoma, 10.9 µM; with HT29 colon, 16.6 µM; in the assay with KM12 colon, 12.4 µM; with OVCAR-3 ovarian, 7.78 µM; in the assay with SK-MEL-5 melanoma, 3.62 µM. For the same compound, the TGI in the assay on HS 578T breast is 7.7 µM; with UO-31 renal, 7.7 µM; in the assay on HCT-116 colon it was above 100 µM.

For `COC12OCCN(C)C1=CC(=O)C1(C)N=NCC12` (stereo not drawn), the TGI in the assay with 786-0 renal, in the assay on LOX IMVI melanoma, in the assay with HT29 colon, in the assay on KM12 colon, in the assay on OVCAR-3 ovarian and in the assay on SK-MEL-5 melanoma was above 100 µM in each case. Besides, the TGI in the assay on EKVX NSCLC, in the assay with UO-31 renal and in the assay with HCT-116 colon was above 100 µM in each case.

`C=CCOC(=O)Nc1cccn([C@H](CC(C)C)C(=O)NCCC(C)C)c1=O`: the GI50 in the assay with 786-0 renal was above 100 µM; in the assay on HT29 colon, above 100 µM; with KM12 colon, 92.8 µM; in the assay on OVCAR-3 ovarian, 54.5 µM; with SK-MEL-5 melanoma it was 74.7 µM; in the assay on HS 578T breast, 87.8 µM. Also, the GI50 in the assay on UO-31 renal is 27.5 µM; in the assay with HCT-116 colon, 49.6 µM. Besides, the TGI in the assay with 786-0 renal, with HT29 colon, in the assay on KM12 colon, in the assay on OVCAR-3 ovarian, in the assay on SK-MEL-5 melanoma and in the assay with HS 578T breast was above 100 µM each time. Moreover, the TGI with UO-31 renal and in the assay on HCT-116 colon was above 100 µM throughout.

Consider `COc1ccc(-c2[nH]nc(N)c2-c2cc(OC)c(OC)c(OC)c2)cc1`, for which the GI50 in the assay with 786-0 renal is 0.0663 µM; in the assay with LOX IMVI melanoma it was 0.0756 µM; with HT29 colon it was 0.0343 µM; with KM12 colon, 0.0246 µM; with OVCAR-3 ovarian it was 0.0261 µM; with SK-MEL-5 melanoma, 0.0381 µM. The GI50 with HS 578T breast was 0.0352 µM; in the assay with UO-31 renal, 0.0644 µM; in the assay on HCT-116 colon, 0.0417 µM. The TGI in the assay on 786-0 renal was above 58.3 µM; in the assay on LOX IMVI melanoma it was above 100 µM; in the assay on HT29 colon, 18.2 µM; in the assay with KM12 colon, 9.79 µM; in the assay on OVCAR-3 ovarian it was 0.853 µM; in the assay on SK-MEL-5 melanoma, 0.725 µM. Moreover, the TGI is above 59 µM in the assay on HS 578T breast, 66.7 µM in the assay on UO-31 renal and 42.6 µM with HCT-116 colon.

For the compound `CC(C)=NNC(=S)NC12CC3CC(CC(C3)C1)C2`, the TGI with 786-0 renal, in the assay on LOX IMVI melanoma, with HT29 colon, in the assay with KM12 colon, in the assay on OVCAR-3 ovarian and in the assay with SK-MEL-5 melanoma was above 100 µM throughout. Further, the TGI in the assay with EKVX NSCLC, with UO-31 renal and in the assay on HCT-116 colon was above 100 µM in each case.
